Results on four sequences are retold here after patent US20070128217A1 (priority 2003, published 2007).

Test [1] deals with antibodies in sera from SARS patients (sera 1a, 1b, 2, 6, 37, 62, London, SARS-yellow, SARS-green). It counts as binding, human. Details: Binding of serum 6 to linear peptides of protein X1 of SARS-CoV Urbani / Binding of serum 37 to linear peptides of protein X1 of SARS-CoV Urbani / Binding of serum 6 to looped/cyclic peptide (PEPSCAN-ELISA) / Binding of serum 37 to looped/cyclic peptide (PEPSCAN-ELISA) / Binding of serum 37 to looped/cyclic peptides of protein X1 of SARS-CoV Urbani / Binding of serum 6 to linear peptides of protein X2 / Binding of serum 37 to linear peptides of protein X2 / Binding of serum 37 to looped/cyclic peptides of protein X2 of SARS-CoV Urbani / Binding of serum 6 to linear peptides of protein M of SARS-CoV Urbani / Binding of serum 37 to linear peptides of protein M of SARS-CoV Urbani / Binding of serum 6 to looped/cyclic peptides of protein M of SARS-CoV Urbani / Binding of serum 37 to looped/cyclic peptides of protein M of SARS-CoV Urbani / Binding of serum 6 to linear peptides of protein X3 of SARS-CoV Urbani / Binding of serum 37 to linear peptides of protein X3 of SARS-CoV Urbani / Binding of serum 37 to looped/cyclic peptides of protein X3 of SARS-CoV Urbani / Binding of serum 6 to linear peptides of protein X4 of SARS-CoV Urbani / Binding of serum 37 to linear peptides of protein X4 of SARS-CoV Urbani / Binding of serum 37 to looped/cyclic peptides of protein X4 of SARS-CoV Urbani / Binding of serum 6 to linear peptides of protein X5 of SARS-CoV Urbani / Binding of serum 37 to linear peptides of protein X5 of SARS-CoV Urbani / Binding of serum 37 to looped/cyclic peptides of protein X5 of SARS-CoV Urbani / Binding of serum 6 to linear peptides of protein N of SARS-CoV Urbani / Binding of serum 37 to linear peptides of protein N of SARS-CoV Urbani / Binding of serum 6 to linear peptide (PEPSCAN-ELISA) / Binding of serum 1a to looped/cyclic peptides of protein N of SARS-CoV Urbani / Binding of serum 1b to looped/cyclic peptides of protein N of SARS-CoV Urbani / Binding of serum 2 to looped/cyclic peptides of protein N of SARS-CoV Urbani / Binding of serum 6 to looped/cyclic peptides of protein N of SARS-CoV Urbani / Binding of serum 37 to looped/cyclic peptides of protein N of SARS-CoV Urbani / Binding of serum 62 to looped/cyclic peptides of protein N of SARS-CoV Urbani / Binding of serum London to looped/cyclic peptides of protein N of SARS-CoV Urbani / Binding of serum SARS-green to looped/cyclic peptides of protein N of SARS-CoV Urbani: unit not given here.

Test [2] has as its system control sera (pooled serum of ten healthy LUMC hospital workers; commercial negative donor pooled serum from the Dutch bloodbank). Format: binding, human. The arrangement: Binding of Control serum LUMC to linear peptides / Binding of Control serum Blood-bank to linear peptides / Binding of Control serum LUMC to looped peptides / Binding of Control Serum Blood-Bank to Looped peptides / Binding of Control serum LUMC to linear peptides of the protein M of SARS-CoV Urbani / Binding of Control serum Blood-bank to linear peptides of the protein M of SARS-CoV Urbani / Binding of Control serum LUMC to looped peptides of the protein M of SARS-CoV Urbani / Binding of Control Serum Blood-Bank to Looped peptides of the protein M of SARS-CoV Urbani: unit not given here.

The subject of test [3] is rabbit serum obtained by immunizing a rabbit with the SARS-CoV strain Frankfurt 1. It counts as binding. Details: Binding of a rabbit serum to linear peptides / Binding of a rabbit serum to looped peptides / Rabbit serum linear peptides / Rabbit serum looped peptides / Binding of a rabbit serum to linear peptides of protein N of SARS-CoV Urbani (Rabbit serum linear peptides) / Binding of a rabbit serum to looped/cyclic peptides of protein N of SARS-CoV Urbani (Rabbit serum looped peptides): unit not given here.

Turning to WNLDVIISSIVRQLF, in test [1], the “Binding of serum 1a to linear peptides of protein X3 of SARS-CoV Urbani” value came to 0.7, the “Binding of serum 1a to looped/cyclic peptides of protein X3 of SARS-CoV Urbani” value is recorded as 0.5, the “Binding of serum 1b to linear peptides of protein X3 of SARS-CoV Urbani” value stood at 0.2 and the “Binding of serum 1b to looped/cyclic peptides of protein X3 of SARS-CoV Urbani” value is 0.3. Also, in test [1], the “Binding of serum 2 to linear peptides of protein X3 of SARS-CoV Urbani” value is listed as 0.4, the “Binding of serum 2 to looped/cyclic peptides of protein X3 of SARS-CoV Urbani” value is 0.4, the “Binding of serum 6 to linear peptides of protein X3 of SARS-CoV Urbani” value was determined as 0.4 and the “Binding of serum 6 to looped/cyclic peptides of protein X3 of SARS-CoV Urbani” value came to 0.4. In test [1], the “Binding of serum 37 to linear peptides of protein X3 of SARS-CoV Urbani” value was determined as 0.6, the “Binding of serum 37 to looped/cyclic peptides of protein X3 of SARS-CoV Urbani” value was 0.4, the “Binding of serum 62 to linear peptides of protein X3 of SARS-CoV Urbani” value is 0.6 and the “Binding of serum 62 to looped/cyclic peptides of protein X3 of SARS-CoV Urbani” value amounted to 0.4. Besides, in test [1], the “Binding of serum London to linear peptides of protein X3 of SARS-CoV Urbani” value was 0.5, the “Binding of serum London to looped/cyclic peptides of protein X3 of SARS-CoV Urbani” value was 0.2, the “Binding of serum SARS-green to linear peptides of protein X3 of SARS-CoV Urbani” value came to 0.2 and the “Binding of serum SARS-green to looped/cyclic peptides of protein X3 of SARS-CoV Urbani” value is recorded as 0.2. Besides, in test [1], the “Binding of serum SARS-yellow to linear peptides of protein X3 of SARS-CoV Urbani” value was 0.2 and the “Binding of serum SARS-yellow to looped/cyclic peptides of protein X3 of SARS-CoV Urbani” value turned out to be 0.5. In addition, in test [2], the “Binding of Control Serum Blood-Bank to Looped peptides of the protein X3 of SARS-CoV Urbani” value worked out at 0.8, the “Binding of Control serum Blood-bank to linear peptides of the protein X3 of SARS-CoV Urbani” value turned out to be 0.6, the “Binding of Control serum LUMC to linear peptides of the protein X3 of SARS-CoV Urbani” value is recorded as 0.3 and the “Binding of Control serum LUMC to looped peptides of the protein X3 of SARS-CoV Urbani” value is 0.7. In addition, in test [3], the “Rabbit serum linear peptides” value turned out to be 0.1 and the “Rabbit serum looped peptides” value came out at 0.2.
As to WPVTLACFVLAAVYR, in test [1], the “Binding of serum 1a to linear peptides of protein M of SARS-CoV Urbani” value came to 0.7, the “Binding of serum 1a to looped/cyclic peptides of protein M of SARS-CoV Urbani” value stood at 0.8, the “Binding of serum 1b to linear peptides of protein M of SARS-CoV Urbani” value amounted to 0.5 and the “Binding of serum 1b to looped/cyclic peptides of protein M of SARS-CoV Urbani” value amounted to 0.6. Further, in test [1], the “Binding of serum 2 to linear peptides of protein M of SARS-CoV Urbani” value is 0.4, the “Binding of serum 2 to looped/cyclic peptides of protein M of SARS-CoV Urbani” value worked out at 0.8, the “Binding of serum 6 to linear peptides of protein M of SARS-CoV Urbani” value was found to be 0.3 and the “Binding of serum 6 to looped/cyclic peptides of protein M of SARS-CoV Urbani” value stood at 1.1. In test [1], the “Binding of serum 37 to linear peptides of protein M of SARS-CoV Urbani” value was found to be 0.4, the “Binding of serum 37 to looped/cyclic peptides of protein M of SARS-CoV Urbani” value is reported as 0.8, the “Binding of serum 62 to linear peptides of protein M of SARS-CoV Urbani” value worked out at 0.4 and the “Binding of serum 62 to looped/cyclic peptides of protein M of SARS-CoV Urbani” value turned out to be 1.1. Further, in test [1], the “Binding of serum London to linear peptides of protein M of SARS-CoV Urbani” value is 0.3, the “Binding of serum London to looped/cyclic peptides of protein M of SARS-CoV Urbani” value stood at 0.4, the “Binding of serum SARS-green to linear peptides of protein M of SARS-CoV Urbani” value is on record as 0.4 and the “Binding of serum SARS-green to looped/cyclic peptides of protein M of SARS-CoV Urbani” value was determined as 0.2. Moreover, in test [1], the “Binding of serum SARS-yellow to linear peptides of protein M of SARS-CoV Urbani” value stood at 0.2 and the “Binding of serum SARS-yellow to looped/cyclic peptides of protein M of SARS-CoV Urbani” value is on record as 0.4. In test [2], the “Binding of Control Serum Blood-Bank to Looped peptides of the protein M of SARS-CoV Urbani” value is 0.8, the “Binding of Control serum Blood-bank to linear peptides of the protein M of SARS-CoV Urbani” value is 0.7, the “Binding of Control serum LUMC to linear peptides of the protein M of SARS-CoV Urbani” value worked out at 0.5 and the “Binding of Control serum LUMC to looped peptides of the protein M of SARS-CoV Urbani” value is reported as 1.2. For the same sequence, in test [3], the “Rabbit serum linear peptides” value is on record as 0.2 and the “Rabbit serum looped peptides” value worked out at 0.4.
Consider YFVASFRLFARTRSM, for which, in test [1], the “Binding of serum 1a to linear peptides of protein M of SARS-CoV Urbani” value worked out at 0.6, the “Binding of serum 1b to linear peptides of protein M of SARS-CoV Urbani” value is given as 0.4, the “Binding of serum 2 to linear peptides of protein M of SARS-CoV Urbani” value is given as 0.4 and the “Binding of serum 6 to linear peptides of protein M of SARS-CoV Urbani” value was found to be 0.4. In test [1], the “Binding of serum 37 to linear peptides of protein M of SARS-CoV Urbani” value was 0.4, the “Binding of serum 62 to linear peptides of protein M of SARS-CoV Urbani” value is given as 0.6, the “Binding of serum London to linear peptides of protein M of SARS-CoV Urbani” value amounted to 0.3 and the “Binding of serum SARS-green to linear peptides of protein M of SARS-CoV Urbani” value is 0.3. In addition, in test [1], the “Binding of serum SARS-yellow to linear peptides of protein M of SARS-CoV Urbani” value is recorded as 0.1; the “Recognition of the peptide by sera of SARS-CoV infected individuals, and form (linear, looped/cyclic) in which it is recognized” value is reported as “recognized in looped/cyclic form”. In addition, in test [2], the “Binding of Control Serum Blood-Bank to Looped peptides of the protein M of SARS-CoV Urbani” value is reported as 0.9, the “Binding of Control serum Blood-bank to linear peptides of the protein M of SARS-CoV Urbani” value is listed as 0.6, the “Binding of Control serum LUMC to linear peptides of the protein M of SARS-CoV Urbani” value was found to be 0.3 and the “Binding of Control serum LUMC to looped peptides of the protein M of SARS-CoV Urbani” value was found to be 0.7. Further, in test [3], the “Rabbit serum linear peptides” value amounted to 0.6 and the “Rabbit serum looped peptides” value turned out to be 0.8.
On to YHITVSQIQLSLLKV, for which, in test [1], the “Binding of serum 1a to linear peptides of protein X2” value came out at 0.6, the “Binding of serum 1a to looped/cyclic peptides of protein X2 of SARS-CoV Urbani” value was 0.4, the “Binding of serum 1b to linear peptides of protein X2” value was 0.5 and the “Binding of serum 1b to looped/cyclic peptides of protein X2 of SARS-CoV Urbani” value worked out at 0.4. For the same sequence, in test [1], the “Binding of serum 2 to linear peptides of protein X2” value is recorded as 0.5, the “Binding of serum 2 to looped/cyclic peptides of protein X2 of SARS-CoV Urbani” value worked out at 0.4, the “Binding of serum 6 to linear peptides of protein X2” value amounted to 0.5 and the “Binding of serum 6 to looped/cyclic peptides of protein X2 of SARS-CoV Urbani” value was found to be 0.1. For the same sequence, in test [1], the “Binding of serum 37 to linear peptides of protein X2” value was 0.7, the “Binding of serum 37 to looped/cyclic peptides of protein X2 of SARS-CoV Urbani” value was 0.4, the “Binding of serum 62 to linear peptides of protein X2” value is reported as 0.5 and the “Binding of serum 62 to looped/cyclic peptides of protein X2 of SARS-CoV Urbani” value is given as 0.5. Besides, in test [1], the “Binding of serum London to linear peptides of protein X2” value was 0.4, the “Binding of serum London to looped/cyclic peptides of protein X2 of SARS-CoV Urbani” value stood at 0.2, the “Binding of serum SARS-green to linear peptides of protein X2” value was found to be 0.1 and the “Binding of serum SARS-green to looped/cyclic peptides of protein X2 of SARS-CoV Urbani” value was 0.3. Also, in test [1], the “Binding of serum SARS-yellow to linear peptides of protein X2” value is reported as 0.6 and the “Binding of serum SARS-yellow to looped/cyclic peptides of protein X2 of SARS-CoV Urbani” value was 0.4. Also, in test [2], the “Binding of Control Serum Blood-Bank to Looped peptides” value is given as 0.3, the “Binding of Control serum Blood-bank to linear peptides” value is given as 0.6, the “Binding of Control serum LUMC to linear peptides” value is 0.7 and the “Binding of Control serum LUMC to looped peptides” value is reported as 0.4. Also, in test [3], the “Binding of a rabbit serum to linear peptides” value is given as 0.8 and the “Binding of a rabbit serum to looped peptides” value is recorded as 0.3.
